Columns and labels:
[1] = tested on: B16; test: Cytotoxicity against Mus musculus (mouse) B16 cells after 3 days by MTT assay; assay type: functional, cell-based; conditions: B16, 72 h
[2] = tested on: HeLa; test: Cytotoxicity against Homo sapiens (human) HeLa cells; assay type: functional, cell-based

Structure (SMILES)	IC50 [1]	IC50 [2]
COc1cccc(/C=C/C(=O)c2ccc(OC)c(N)c2)c1	33 µM	
COc1cc(C(=O)/C=C/c2ccc([N+](=O)[O-])cc2)cc(OC)c1OC	> 100 µM	73 µM
COc1ccc(C(=O)/C=C/c2cc(OC)c(OC)c(OC)c2)cc1N	67 µM	
COc1ccc(/C=C/C(=O)c2ccc(OC)c(N)c2)cc1	43 µM	
COc1ccc(/C=C/C(=O)c2ccc(OC)c([N+](=O)[O-])c2)cc1	> 100 µM	
COc1ccc(C(=O)/C=C/c2cc(OC)c(OC)c(OC)c2)cc1[N+](=O)[O-]	> 100 µM	
COc1ccc(C(=O)/C=C/c2ccccc2)cc1N	> 100 µM	
COc1ccc(OC)c(C(=O)/C=C/c2ccc(N)cc2)c1	> 100 µM	
COc1ccc(/C=C/C(=O)c2ccc(OC)c([N+](=O)[O-])c2)cc1OC	> 100 µM	
COc1cc(C(=O)/C=C/c2ccc(N)cc2)cc(OC)c1OC	30 µM	0.48 µM
COc1ccc(/C=C/C(=O)c2cc(OC)c(OC)c(OC)c2)cc1[N+](=O)[O-]	> 100 µM	
COc1ccc(C(=O)/C=C/c2ccccc2)cc1[N+](=O)[O-]	> 100 µM	
COc1cc(/C=C/C(=O)c2ccc(OC)c([N+](=O)[O-])c2)cc(OC)c1	5.6 µM	
COc1ccc(OC)c(C(=O)/C=C/c2ccc(OC)c(N)c2)c1	2 µM	
COc1ccc(/C=C/C(=O)c2cc(OC)c(OC)c(OC)c2)cc1N	0.24 µM	
COc1ccc(OC)c(/C=C/C(=O)c2ccc(OC)c(N)c2)c1	5.6 µM	
COc1cc(/C=C/C(=O)c2ccc(OC)c(N)c2)cc(OC)c1	8.8 µM	
COc1ccc(OC)c(/C=C/C(=O)c2ccc(OC)c([N+](=O)[O-])c2)c1	13 µM	
COc1ccc(C(=O)/C=C/c2ccc(OC)c(OC)c2)cc1N	18 µM	
COc1cccc(/C=C/C(=O)c2ccc(OC)c([N+](=O)[O-])c2)c1	> 100 µM	
COc1ccc(OC)c(C(=O)/C=C/c2ccc(OC)c([N+](=O)[O-])c2)c1	> 100 µM	
COc1ccc(OC)c(C(=O)/C=C/c2ccc([N+](=O)[O-])cc2)c1	> 100 µM	

From ChEMBL document CHEMBL3045661, “SYNTHESIS AND CYTOTOXIC PROPERTIES OF NITRO- AND AMINOCHALCONES” (Med Chem Res, 2005)
